Source: patent publication US10517826B2, “Anthostema senegalense-based composition for use as an anti-AIDS drug” (LABORATOIRE MICHEL IDERNE, priority 2014, dated 2019)
In brackets after ≈: the same amount, converted by molar mass. Like-named read-outs stand apart in the source and are kept apart here.

How the values were obtained:
[1] = tested on: type 2 virus (strain ROD); experiment: in vitro anti-HIV test, median inhibitory concentration on HIV-2; assay type: cell-based; conditions: HIV-2 ROD Strain
Experimental: (§1) An apolar extract and a polar extract of Anthostema senegalense were prepared by extraction with dichloromethane and methanol, respectively, from dried stem bark of Anthostema senegalense.
(§2) The efficacy of these extracts against the HIV virus was tested in vitro by measuring the median inhibitory concentration (IC50) of these substances on the type 1 HIV virus (strain IIIB) and on the type 2 virus (strain ROD). Their selectivity index was also measured in each case.
(§3) In order to serve as a control, three known antiretroviral molecules used in the treatment of the infection with HIV: nevirapine, dideoxycitidine and dideoxyinosine were also tested under the same conditions for comparison.

[2] = tested on: type 1 HIV virus (strain IIIB); experiment: in vitro anti-HIV test, median inhibitory concentration on HIV-1; assay type: cell-based; conditions: HIV-1 Strain IIIB
Experimental: as §1, §2, §3

| Compound | IC50 [1] [µg/mL] | IC50 [2] [µg/mL] | IC50 ([1]; Human immunodeficiency virus 2, read-out: IC50) [µg/mL] | IC50 ([2]; Human immunodeficiency virus 1, read-out: IC50) [µg/mL] |
| --- | --- | --- | --- | --- |
| Nc1ccn([C@H]2CC[C@@H](CO)O2)c(=O)n1 [Dideoxycitidine, dideoxycitidine] | 0.30 (≈ 1.42 µM) | 0.29 (≈ 1.37 µM) | – | – |
| Cc1ccnc2c1NC(=O)c1cccnc1N2C1CC1 [Nevirapine, nevirapine] | – | – | > 4 | 0.047 (≈ 0.176 µM) |
| O=c1[nH]cnc2c1ncn2[C@H]1CC[C@@H](CO)O1 [Dideoxyinosine, dideoxyinosine] | 4.59 (≈ 19.4 µM) | 2.89 (≈ 12.2 µM) | – | – |
